Target: T1, thromboxane synthetase (Cavia porcellus, UniProt H0UT36)
T1 construct: from tissue; host or cells: citrated whole blood (platelets) of albino male Dunkin-Hartley guinea pigs (printed 'Dunkin-Bartley') dosed orally
T1 sequence (H0UT36 1-533): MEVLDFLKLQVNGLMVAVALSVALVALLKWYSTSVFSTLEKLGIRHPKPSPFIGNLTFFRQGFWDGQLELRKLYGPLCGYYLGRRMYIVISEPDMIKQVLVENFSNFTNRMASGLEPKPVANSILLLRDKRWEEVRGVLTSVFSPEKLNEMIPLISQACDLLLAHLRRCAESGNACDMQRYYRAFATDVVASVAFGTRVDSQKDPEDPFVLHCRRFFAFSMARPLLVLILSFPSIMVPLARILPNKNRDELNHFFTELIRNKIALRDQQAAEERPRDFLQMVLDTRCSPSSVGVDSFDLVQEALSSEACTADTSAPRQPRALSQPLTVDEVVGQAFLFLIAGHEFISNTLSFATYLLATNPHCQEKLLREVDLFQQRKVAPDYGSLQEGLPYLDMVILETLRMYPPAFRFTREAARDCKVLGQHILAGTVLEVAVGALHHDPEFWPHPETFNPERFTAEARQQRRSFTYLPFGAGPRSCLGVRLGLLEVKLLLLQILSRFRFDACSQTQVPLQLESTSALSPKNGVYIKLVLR
Assay: Whole blood aggregation and thromboxane formation in vivo: guinea pig (plasma TXB2 by radioimmunoassay after oral dosing)
Details: plasma TXB2 in collagen-stimulated citrated whole blood of guinea pigs dosed orally, versus vehicle controls; normalized to platelet count; dose not given

CCOC(=O)c1ccc(/C=C(/COCc2ccc(OC)cc2)Cn2ccnc2)c(OC)c1 (single isomer, unassigned) [11 (E-isomer), ethyl 4-[3-(1H-imidazol-1-yl)-2-[[(4-methoxyphenyl]methoxy]methyl]-lE-propenyl]-3-methoxybenzoate]
% INHIBITION: -36.0%

Reference: EP0150892A2, “Substituted alkylidene imidazoles” (G.D. Searle & Co., priority 1984, dated 1985)
